Experimental findings from ChEMBL document CHEMBL1914304 (J Med Chem, 2011) are described below.

In one series the test system is BJ. Description: Cytotoxicity against human BJ cells after 72 hrs by luminescence assay. The class given is cell-based.
Series [1] in a line: Selectivity ratio of EC50 for human HepG2 cells to EC50 for Plasmodium falciparum.
The subject of a further series is HepG2. Description: Cytotoxicity against human HepG2 cells after 72 hrs by luminescence assay. The format is cell-based. The note with it: hepg2, 72 h.
The next series has as its system Raji. Description: Cytotoxicity against human Raji cells after 72 hrs by luminescence assay. The format is cell-based.
A further series deals with HEK293. Put plainly: Cytotoxicity against human HEK293 cells after 72 hrs by luminescence assay. The format is cell-based. The note with it: hek293, 72 h.

As to `Cl.Nc1ccc(N2CCN(CC(O)COc3ccc(F)cc3C(=O)CCc3ccccc3)CC2)cc1` (racemic), the Activity result in the series with BJ, with HepG2, in the series on Raji and with HEK293 was “Non-toxic” each time. Moreover, the selectivity ratio in series [1] was greater than 10.

With `Cl.O=C(CCc1ccccc1)c1cc(F)ccc1OCC(O)CN1CCN(c2ccc(O)cc2)CC1` (racemic), the Activity result with BJ, in the series with HepG2, with Raji and in the series with HEK293 was “Non-toxic” throughout. Besides, the selectivity ratio in series [1] is greater than 10.

As for `Cl.O=C(CCc1ccccc1)c1cc(F)ccc1OCC(O)CN1CCN(c2ccc(C(F)(F)F)cc2)CC1` (racemic), the Activity result with BJ, in the series on HepG2, in the series with Raji and with HEK293 was “Non-toxic” throughout. Further, the selectivity ratio in series [1] was greater than 10.

For `Cl.O=C(CCc1ccccc1)c1cc(F)ccc1OCC(O)CN1CCN(C(=O)c2ccccc2)CC1` (racemic), the Activity entry with BJ, with HepG2, in the series with Raji and in the series on HEK293 was “Non-toxic” in each case. Moreover, the selectivity ratio in series [1] is greater than 10.

In the case of `CN1CCN(CC(O)COc2ccc(F)cc2C(=O)CCc2ccccc2)CC1.Cl` (racemic), the Activity result in the series on BJ, in the series on HepG2, with Raji and in the series on HEK293 was “Non-toxic” throughout. The selectivity ratio in series [1] was greater than 10.

Consider `CCN1CCN(CC(O)COc2ccc(F)cc2C(=O)CCc2ccccc2)CC1.Cl` (racemic), for which the Activity entry in the series on BJ, in the series with HepG2, in the series on Raji and in the series with HEK293 was “Non-toxic” throughout. The selectivity ratio in series [1] was greater than 10.

As to `Cl.O=C(CCc1ccc(F)cc1)c1cc(F)ccc1OCC(O)CN1CCCCC1` (racemic), the Activity result in the series with BJ, in the series on HepG2, in the series on Raji and with HEK293 was “Non-toxic” in each case. The selectivity ratio in series [1] was greater than 10.

On to `Cl.O=C(CCc1ccc(F)cc1)c1cc(F)ccc1OCC(O)CN1CCC(c2ccccc2)CC1` (racemic), for which the Activity result with BJ, in the series with HepG2, with Raji and in the series with HEK293 was “Non-toxic” in each case. For the same compound, the selectivity ratio in series [1] is greater than 10.

For the compound `Cl.O=C(CCc1ccc(F)cc1)c1cc(F)ccc1OCC(O)CN1CCC(Cc2ccccc2)CC1` (racemic), the Activity entry in the series with BJ, in the series on HepG2, with Raji and in the series with HEK293 was “Non-toxic” in each case. Also, the selectivity ratio in series [1] is greater than 10.

As to `Cl.O=C(CCc1ccc(F)cc1)c1cc(F)ccc1OCC(O)CN1CCC(c2ccc(Cl)cc2)CC1` (racemic), the Activity entry in the series on BJ, in the series with HepG2, in the series with Raji and in the series on HEK293 was “Non-toxic” throughout. Further, the selectivity ratio in series [1] is greater than 10.

As to `Cl.O=C(CCc1ccc(F)cc1)c1cc(F)ccc1OCC(O)CN1CCC(O)CC1` (racemic), the Activity result with BJ, with HepG2, with Raji and in the series on HEK293 was “Non-toxic” in each case. Besides, the selectivity ratio in series [1] was greater than 10.

`Cl.O=C(CCc1ccc(F)cc1)c1cc(F)ccc1OCC(O)CN1CCC(O)(Cc2ccccc2)CC1` (racemic): the Activity result in the series on BJ, in the series with HepG2, with Raji and in the series on HEK293 was “Non-toxic” in each case. Besides, the selectivity ratio in series [1] was greater than 10.

`Cl.O=C(CCc1ccc(F)cc1)c1cc(F)ccc1OCC(O)CN1CCN(c2ccccc2)CC1` (racemic): the Activity entry with BJ, with HepG2, in the series on Raji and in the series with HEK293 was “Non-toxic” throughout. The selectivity ratio in series [1] was greater than 10.

Turning to `Cl.O=C(CCc1ccc(F)cc1)c1cc(F)ccc1OCC(O)CN1CCN(Cc2ccccc2)CC1` (racemic), the Activity entry in the series on BJ, in the series with HepG2, with Raji and with HEK293 was “Non-toxic” throughout. Also, the selectivity ratio in series [1] is greater than 10.

For the compound `Cc1ccccc1N1CCN(CC(O)COc2ccc(F)cc2C(=O)CCc2ccc(F)cc2)CC1.Cl` (racemic), the Activity result in the series on BJ, in the series with HepG2, in the series on Raji and in the series with HEK293 was “Non-toxic” in each case. Moreover, the selectivity ratio in series [1] is greater than 10.

For the compound `Cc1cccc(N2CCN(CC(O)COc3ccc(F)cc3C(=O)CCc3ccc(F)cc3)CC2)c1.Cl` (racemic), the Activity entry in the series on BJ, with HepG2, in the series with Raji and in the series on HEK293 was “Non-toxic” in each case. The selectivity ratio in series [1] was greater than 10.

For `Cc1ccc(N2CCN(CC(O)COc3ccc(F)cc3C(=O)CCc3ccc(F)cc3)CC2)cc1.Cl` (racemic), the Activity result in the series on BJ, in the series on HepG2, in the series with Raji and with HEK293 was “Non-toxic” each time. Moreover, in series [1], the selectivity ratio was greater than 10.

For the compound `COc1ccccc1N1CCN(CC(O)COc2ccc(F)cc2C(=O)CCc2ccc(F)cc2)CC1.Cl` (racemic), the Activity result with BJ, with HepG2, with Raji and in the series on HEK293 was “Non-toxic” throughout. The selectivity ratio in series [1] is greater than 10.

On to `COc1cccc(N2CCN(CC(O)COc3ccc(F)cc3C(=O)CCc3ccc(F)cc3)CC2)c1.Cl` (racemic), for which the Activity entry in the series on BJ, with HepG2, with Raji and in the series with HEK293 was “Non-toxic” in each case. The selectivity ratio in series [1] was greater than 10.

On to `COc1ccc(N2CCN(CC(O)COc3ccc(F)cc3C(=O)CCc3ccc(F)cc3)CC2)cc1.Cl` (racemic), for which the Activity entry in the series on BJ, in the series on HepG2, with Raji and with HEK293 was “Non-toxic” in each case. Further, the selectivity ratio in series [1] was greater than 10.

Consider `Cl.O=C(CCc1ccc(F)cc1)c1cc(F)ccc1OCC(O)CN1CCN(c2ccccc2Cl)CC1` (racemic), for which the Activity result with BJ, in the series on HepG2, in the series on Raji and in the series on HEK293 was “Non-toxic” throughout. The selectivity ratio in series [1] was greater than 10.

Consider `Cl.O=C(CCc1ccc(F)cc1)c1cc(F)ccc1OCC(O)CN1CCN(c2ccc(Cl)cc2)CC1` (racemic), for which the Activity entry in the series with BJ, with HepG2, with Raji and in the series on HEK293 was “Non-toxic” throughout. Further, the selectivity ratio in series [1] was greater than 10.
